Assay results: patent US20240034731A1, “AZA-QUINAZOLINE COMPOUNDS AND METHODS OF USE” (Iambic Therapeutics, Inc., priority 2022, published 2024)

Columns and labels:
CDK4/Cyclin D1 = CDK4/Cyclin D1 (Homo sapiens (Human), UniProt P11802); assay: CDK4/Cyclin D1 CHEF Assay (AQT0258 peptide); assay type: biochemical; details: 200 uM ATP, read-out: CDK4/ CyclinD1 AQT IC50
How it was run: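 Sox-labelled peptide AQT0258 phosphorylation read as chelation-enhanced fluorescence (ex 360/em 485 nm) with Mg(II). Enzyme preincubated with inhibitor 30 min at 22°C, substrate added, 3 h at 22°C; IC50 from four-parameter fit of fractional velocity versus inhibitor concentration.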

OVCAR-3 cells = assay: Cell Growth Inhibition, OVCAR-3 (CellTiterGlo, 6 days); assay type: cell-based; details: Homo sapiens, 144 h, OVCAR-3, 6-day treatment
How it was run: (§1)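 MCF-7 (ER+ breast adenocarcinoma) or CCNE1-amplified OVCAR-3 cells, 500/well in RPMI with 10% FBS, treated with half-log dilutions typically 10-10,000 nM for 6 days at 37 °C. CellTiterGlo 2.0 luminescence gave % growth inhibition versus control; IC50 by four-parameter variable-slope fit.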

CDK6/Cyclin D3 = CDK6/Cyclin D3 (Homo sapiens (Human), UniProt Q00534); assay: CDK6/Cyclin D3 ADP-Glo Kinase Assay; assay type: biochemical; details: 100 uM ATP, read-out: CDK6/ CyclinD3 IC50
How it was run: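 Enzyme and inhibitor were pre-incubated for 30 min at room temperature before ATP/substrate was added. The kinase reaction ran 90 min at room temperature, and ADP formed was detected by ADP-Glo luminescence. IC50 was fitted with a 4-parameter equation to fractional velocity versus inhibitor concentration.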

CDK2/Cyclin E1 = CDK2/Cyclin E1 (Homo sapiens (Human), UniProt P24941); assay: CDK2/Cyclin E1 Full length ADP-Glo Kinase Assay; assay type: biochemical; details: 20 uM ATP, read-out: CDK2/ CyclinE1 IC50
How it was run: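 Full-length human CDK2/cyclin E1 was preincubated 30 min at room temperature with inhibitor, then reacted 90 min with ATP-containing substrate solution. ADP formed was measured by ADP-Glo luminescence; IC50 from 4-parameter fit of fractional velocity versus inhibitor concentration.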

MCF-7 cells = assay: Cell Growth Inhibition, MCF-7 (CellTiterGlo, 6 days); assay type: cell-based; details: Homo sapiens, MCF7, 144 h, MCF-7, 6-day treatment
How it was run: as §1

CDK1/Cyclin B1 = CDK1/Cyclin B1 (Homo sapiens (Human), UniProt P06493); assay: CDK1/Cyclin B1 ADP-Glo Kinase Assay; assay type: biochemical; details: ADP-Glo, 80 uM ATP; read-out: CDK1 Cyclin B1 IC50
How it was run: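 Enzyme and inhibitor pre-incubated 30 min at room temperature before ATP/substrate addition; reaction run 90 min at room temperature. ADP formed measured by ADP-Glo luminescence; IC50 from a 4-parameter fit of fractional velocity versus inhibitor concentration.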

CDK4/Cyclin D1, sequence (P11802 whole entry): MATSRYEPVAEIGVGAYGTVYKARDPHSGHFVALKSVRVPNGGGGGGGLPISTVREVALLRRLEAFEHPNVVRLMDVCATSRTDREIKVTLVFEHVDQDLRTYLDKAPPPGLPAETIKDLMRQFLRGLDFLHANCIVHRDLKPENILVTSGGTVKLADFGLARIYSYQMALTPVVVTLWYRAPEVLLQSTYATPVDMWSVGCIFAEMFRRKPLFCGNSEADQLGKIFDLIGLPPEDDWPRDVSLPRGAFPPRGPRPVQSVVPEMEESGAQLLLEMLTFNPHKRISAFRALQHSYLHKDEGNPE
CDK4/Cyclin D1, sequence (P24385 whole entry partner): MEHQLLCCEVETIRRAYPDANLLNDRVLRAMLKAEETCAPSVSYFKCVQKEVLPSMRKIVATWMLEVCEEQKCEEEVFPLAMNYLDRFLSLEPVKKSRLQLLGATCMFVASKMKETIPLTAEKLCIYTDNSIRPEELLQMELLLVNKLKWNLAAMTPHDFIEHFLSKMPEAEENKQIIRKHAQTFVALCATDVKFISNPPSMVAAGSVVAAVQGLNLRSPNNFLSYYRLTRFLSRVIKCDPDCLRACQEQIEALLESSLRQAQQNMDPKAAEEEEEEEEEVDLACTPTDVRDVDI
CDK1/Cyclin B1, sequence (P06493 whole entry): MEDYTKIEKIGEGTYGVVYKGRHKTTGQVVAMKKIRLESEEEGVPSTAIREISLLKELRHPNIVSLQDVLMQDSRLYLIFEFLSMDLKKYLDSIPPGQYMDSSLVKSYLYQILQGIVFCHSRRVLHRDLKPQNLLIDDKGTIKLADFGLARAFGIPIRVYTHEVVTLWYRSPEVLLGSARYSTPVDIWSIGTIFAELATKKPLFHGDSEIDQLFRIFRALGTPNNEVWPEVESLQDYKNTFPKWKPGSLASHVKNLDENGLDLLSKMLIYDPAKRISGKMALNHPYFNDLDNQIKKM
CDK1/Cyclin B1, sequence (P14635 whole entry partner): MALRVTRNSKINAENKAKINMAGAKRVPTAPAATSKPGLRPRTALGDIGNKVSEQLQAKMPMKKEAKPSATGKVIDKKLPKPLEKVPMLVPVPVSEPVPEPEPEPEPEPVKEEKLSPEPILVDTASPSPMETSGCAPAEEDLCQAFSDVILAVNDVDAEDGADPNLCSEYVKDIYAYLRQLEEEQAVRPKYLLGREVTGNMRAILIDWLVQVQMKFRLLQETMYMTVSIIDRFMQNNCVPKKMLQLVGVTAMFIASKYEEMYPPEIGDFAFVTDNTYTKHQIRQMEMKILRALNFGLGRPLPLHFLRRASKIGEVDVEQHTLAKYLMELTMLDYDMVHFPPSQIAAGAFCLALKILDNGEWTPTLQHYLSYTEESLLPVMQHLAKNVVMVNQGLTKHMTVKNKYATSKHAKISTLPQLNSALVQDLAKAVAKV
CDK6/Cyclin D3, sequence (Q00534 whole entry): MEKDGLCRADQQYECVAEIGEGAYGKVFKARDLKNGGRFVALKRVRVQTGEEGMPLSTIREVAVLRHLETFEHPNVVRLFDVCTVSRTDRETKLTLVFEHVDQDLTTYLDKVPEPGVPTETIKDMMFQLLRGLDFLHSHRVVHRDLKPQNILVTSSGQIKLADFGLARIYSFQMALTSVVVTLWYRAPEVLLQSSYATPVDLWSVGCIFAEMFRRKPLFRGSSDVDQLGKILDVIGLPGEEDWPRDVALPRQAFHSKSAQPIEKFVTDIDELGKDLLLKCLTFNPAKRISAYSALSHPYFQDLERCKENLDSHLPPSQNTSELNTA
CDK6/Cyclin D3, sequence (P30281 whole entry partner): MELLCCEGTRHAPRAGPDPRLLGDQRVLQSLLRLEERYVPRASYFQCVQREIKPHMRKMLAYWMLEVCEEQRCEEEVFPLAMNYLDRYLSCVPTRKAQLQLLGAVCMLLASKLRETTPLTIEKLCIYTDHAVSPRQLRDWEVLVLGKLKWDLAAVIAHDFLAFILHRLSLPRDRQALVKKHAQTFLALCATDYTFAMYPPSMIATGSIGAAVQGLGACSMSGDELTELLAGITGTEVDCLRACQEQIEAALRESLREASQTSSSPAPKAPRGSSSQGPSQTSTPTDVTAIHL

SMILES	IC50 (CDK4/Cyclin D1)	IC50 (OVCAR-3 cells)	IC50 (CDK6/Cyclin D3)	IC50 (CDK2/Cyclin E1)	IC50 (MCF-7 cells)	IC50 (CDK1/Cyclin B1)
Cc1cc2cnc(NC3CC4CC3CN4C)nc2c(N2CCC3(C2)CC3(F)F)n1 (stereo not drawn) [Compound 43, 8-(1,1-difluoro-5-azaspiro[2.4]heptan-5-yl)-6-methyl-N-(2-methyl-2-azabicyclo[2.2.1]heptan-5-yl)pyrido[3,4-d]pyrimidin-2-amine]	< 200 nM	500 to 2000 nM	200 to 500 nM	500 to 2000 nM	500 to 2000 nM	> 2000 nM
Cc1cc2cnc(Nc3ccc4c(c3)CN(C)C4)nc2c(N2CC3(C2)CN(C2CC2)C3)n1 [Compound 44, 8-(6-cyclopropyl-2,6-diazaspiro[3.3]heptan-2-yl)-6-methyl-N-(2-methylisoindolin-5-yl)pyrido[3,4-d]pyrimidin-2-amine]	200 to 500 nM	> 2000 nM	500 to 2000 nM	> 2000 nM	> 2000 nM	> 2000 nM
Cc1cc2cnc(N[C@H]3CC[C@@H](CN(C)C)CC3)nc2c(N2CCC3(C2)CC3(F)F)n1 (stereo partly drawn) [Compound 45, 8-(1,1-difluoro-5-azaspiro[2.4]heptan-5-yl)-N-((1s,4s)-4-((dimethylamino)methyl)cyclohexyl)-6-methylpyrido[3,4-d]pyrimidin-2-amine]	< 200 nM	> 2000 nM	500 to 2000 nM	> 2000 nM	> 2000 nM	1 nM
Cc1cc2cnc(Nc3ccc4c(c3)CN(C3CC3)C4)nc2c(N2CC3(CCNC3)C2)n1 [Compound 47, N-(2-cyclopropylisoindolin-5-yl)-6-methyl-8-(2,6-diazaspiro[3.4]octan-2-yl)pyrido[3,4-d]pyrimidin-2-amine]	< 200 nM	500 to 2000 nM	< 200 nM	< 200 nM	500 to 2000 nM	500 to 2000 nM
FC(F)c1cc2cnc(Nc3ccc4c(c3)CN(C3CC3)C4)nc2c(N2CC3(CCNC3)C2)n1 [Compound 50, N-(2-cyclopropylisoindolin-5-yl)-6-(difluoromethyl)-8-(2,6-diazaspiro[3.4]octan-2-yl)pyrido[3,4-d]pyrimidin-2-amine]	< 200 nM	500 to 2000 nM	< 200 nM	< 200 nM	500 to 2000 nM	500 to 2000 nM
Cc1cc2cnc(NC3CCN(S(C)(=O)=O)CC3)nc2c(N2CCC3(CCC3(F)F)C2)n1 (stereo not drawn) [Compound 52, 8-(1,1-difluoro-6-azaspiro[3.4]octan-6-yl)-6-methyl-N-(1-(methylsulfonyl)piperidin-4-yl)pyrido[3,4-d]pyrimidin-2-amine]	< 200 nM	500 to 2000 nM	< 200 nM	< 200 nM	> 2000 nM	< 200 nM
O=S(=O)(CC1CCC1)N1CCC(Nc2ncc3cc(C(F)F)nc(N4CC5(CCNC5)C4)c3n2)CC1 [Compound 55, N-(1-((cyclobutylmethyl)sulfonyl)piperidin-4-yl)-6-(difluoromethyl)-8-(2,6-diazaspiro[3.4]octan-2-yl)pyrido[3,4-d]pyrimidin-2-amine]	< 200 nM	500 to 2000 nM	< 200 nM	< 200 nM	200 to 500 nM	< 200 nM
Cc1cc2cnc(NC3CCN(S(=O)(=O)C4(C)CC4)CC3)nc2c(C2CC(C)(O)C2)n1 (stereo not drawn) [Compound 63, 1-methyl-3-(6-methyl-2-((1-((1-methylcyclopropyl)sulfonyl)piperidin-4-yl)amino)pyrido[3,4-d]pyrimidin-8-yl)cyclobutan-1-ol]	500 to 2000 nM	> 2000 nM	> 2000 nM	200 to 500 nM	> 2000 nM	> 2000 nM
COCCN1CC2(C1)CN(c1nc(C3CC3)cc3cnc(NC4CCN(S(=O)(=O)CC5CCC5)CC4)nc13)C2 [Compound 64, N-(1-((cyclobutylmethyl)sulfonyl)piperidin-4-yl)-6-cyclopropyl-8-(6-(2-methoxyethyl)-2,6-diazaspiro[3.3]heptan-2-yl)pyrido[3,4-d]pyrimidin-2-amine]	< 200 nM	> 2000 nM	200 to 500 nM	< 200 nM	> 2000 nM	500 to 2000 nM

The remaining lines, values ahead:

IC50 (CDK4/Cyclin D1)	IC50 (OVCAR-3 cells)	IC50 (CDK6/Cyclin D3)	IC50 (CDK2/Cyclin E1)	IC50 (MCF-7 cells)	IC50 (CDK1/Cyclin B1)	SMILES
< 200 nM	> 2000 nM	< 200 nM	< 200 nM	> 2000 nM	< 200 nM	Cc1cc2cnc(NC3CCN(S(C)(=O)=O)CC3)nc2c(N2CCC3(C2)CC3(F)F)n1 (stereo not drawn) [Compound 41, 8-(1,1-difluoro-5-azaspiro[2.4]heptan-5-yl)-6-methyl-N-(1-(methylsulfonyl)piperidin-4-yl)pyrido[3,4-d]pyrimidin-2-amine]
< 200 nM	> 2000 nM	200 to 500 nM	< 200 nM	> 2000 nM	500 to 2000 nM	Cc1cc2cnc(NC3CCN(S(=O)(=O)C4CC4)CC3)nc2c(N2CC3(C2)CN(C2CC2)C3)n1 [Compound 48, 8-(6-cyclopropyl-2,6-diazaspiro[3.3]heptan-2-yl)-N-(1-(cyclopropylsulfonyl)piperidin-4-yl)-6-methylpyrido[3,4-d]pyrimidin-2-amine]
< 200 nM	500 to 2000 nM	200 to 500 nM	< 200 nM	500 to 2000 nM	500 to 2000 nM	Cc1cc2cnc(NC3CCN(S(=O)(=O)C4CC4)CC3)nc2c(N2CC3(CCN(C)C3)C2)n1 [Compound 49, N-(1-(cyclopropylsulfonyl)piperidin-4-yl)-6-methyl-8-(6-methyl-2,6-diazaspiro[3.4]octan-2-yl)pyrido[3,4-d]pyrimidin-2-amine]
< 200 nM	> 2000 nM	< 200 nM	< 200 nM	> 2000 nM	> 2000 nM	Cc1cc2cnc(NC3CCN(S(C)(=O)=O)CC3)nc2c(N2CCC3(C2)CC(F)(F)C3)n1 [Compound 53, 8-(2,2-difluoro-6-azaspiro[3.4]octan-6-yl)-6-methyl-N-(1-(methylsulfonyl)piperidin-4-yl)pyrido[3,4-d]pyrimidin-2-amine]
< 200 nM	500 to 2000 nM	< 200 nM	< 200 nM	> 2000 nM	< 200 nM	Cc1cc2cnc(NC3CCN(S(C)(=O)=O)CC3)nc2c(N2CCC3(CC3)C2)n1 [Compound 54, 6-methyl-N-(1-(methylsulfonyl)piperidin-4-yl)-8-(5-azaspiro[2.4]heptan-5-yl)pyrido[3,4-d]pyrimidin-2-amine]
< 200 nM	500 to 2000 nM	< 200 nM	< 200 nM	500 to 2000 nM	< 200 nM	Cc1cc2cnc(NC3CCN(S(=O)(=O)C4CC4)CC3)nc2c(N2CC(O)(C3CC3)C2)n1 [Compound 56, 3-cyclopropyl-1-(2-((1-(cyclopropylsulfonyl)piperidin-4-yl)amino)-6-methylpyrido[3,4-d]pyrimidin-8-yl)azetidin-3-ol]
< 200 nM	> 2000 nM	< 200 nM	< 200 nM	> 2000 nM	200 to 500 nM	Cc1cc2cnc(NC3CCN(S(=O)(=O)C4CC4)CC3)nc2c(N2CC(OC3CC3)C2)n1 [Compound 57, 8-(3-cyclopropoxyazetidin-1-yl)-N-(1-(cyclopropylsulfonyl)piperidin-4-yl)-6-methylpyrido[3,4-d]pyrimidin-2-amine]
< 200 nM	500 to 2000 nM	< 200 nM	< 200 nM	500 to 2000 nM	< 200 nM	Cc1cc2cnc(NC3CCN(S(=O)(=O)C4CC4)CC3)nc2c(N2CCC(OC(F)F)C2)n1 (stereo not drawn) [Compound 58, N-(1-(cyclopropylsulfonyl)piperidin-4-yl)-8-(3-(difluoromethoxy)pyrrolidin-1-yl)-6-methylpyrido[3,4-d]pyrimidin-2-amine]
< 200 nM	500 to 2000 nM	< 200 nM	< 200 nM	500 to 2000 nM	500 to 2000 nM	Cc1cc2cnc(NC3CCN(S(=O)(=O)C4(C)CC4)CC3)nc2c(N2CCC3(CN(C)C3)C2)n1 [Compound 59, 6-methyl-8-(2-methyl-2,6-diazaspiro[3.4]octan-6-yl)-N-(1-((1-methylcyclopropyl)sulfonyl)piperidin-4-yl)pyrido[3,4-d]pyrimidin-2-amine]
< 200 nM	500 to 2000 nM	< 200 nM	< 200 nM	500 to 2000 nM	< 200 nM	Cc1cc2cnc(NC3CCN(S(=O)(=O)C4CC4)CC3)nc2c(N2CC3(CCNCC3(F)F)C2)n1 [Compound 61, N-(1-(cyclopropylsulfonyl)piperidin-4-yl)-8-(5,5-difluoro-2,7-diazaspiro[3.5]nonan-2-yl)-6-methylpyrido[3,4-d]pyrimidin-2-amine]
